Article PMC7488486 (Acta Pharmaceutica Sinica. B, 2020)

Key:
dopamine D2 receptors = dopamine D2 receptors (Homo sapiens, UniProt P14416); test: [35S]GTPγS binding assay in transfected cells, dopamine D2 receptor; assay type: biochemical
adult male Wistar rats [1] = system: adult male Wistar rats
adult male Wistar rats [2] = test: Rotarod, evaluation of motor impairment; assay type: in vivo; conditions: 10 nmol/rat i.t., 30 min after administration, cut-off 300 s, n = 6
adult male Wistar rats [3] = test: Scratching and grooming behaviour; assay type: in vivo; conditions: 10 nmol/rat i.t.
adult male Wistar rats [4] = test: Tail-flick test, acute pain model, single administration; assay type: in vivo; conditions: i.t., 10 nmol/rat, mean ± SEM

Chain of dopamine D2 receptors (P14416 whole entry): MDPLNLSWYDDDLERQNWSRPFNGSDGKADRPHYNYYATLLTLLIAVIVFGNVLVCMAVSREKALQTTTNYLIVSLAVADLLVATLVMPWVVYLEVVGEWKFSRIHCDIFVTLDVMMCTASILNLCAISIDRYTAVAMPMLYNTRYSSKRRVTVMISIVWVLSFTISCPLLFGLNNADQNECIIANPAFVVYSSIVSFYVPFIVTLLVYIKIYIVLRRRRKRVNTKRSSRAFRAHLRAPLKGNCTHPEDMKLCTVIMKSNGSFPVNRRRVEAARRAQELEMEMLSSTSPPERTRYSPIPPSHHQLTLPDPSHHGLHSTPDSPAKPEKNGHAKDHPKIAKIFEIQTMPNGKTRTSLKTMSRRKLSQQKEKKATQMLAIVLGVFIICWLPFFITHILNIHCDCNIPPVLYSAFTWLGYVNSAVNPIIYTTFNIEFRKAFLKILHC

`NCCc1ccc(O)c(O)c1` [Dopamine] was tested, and the “Influence of domperidone on the [35S]GTPγS response” value (dopamine D2 receptors; dopamine receptor antagonist domperidone present, unpublished data) was “considerably reduced in the presence of domperidone” and the Emax (dopamine D2 receptors; read-out: Emax, G protein activation at dopamine D2 receptor) was 141%.

For `CN1CC[C@]23c4c5ccc(O)c4O[C@H]2[C@@H](O)C=C[C@H]3[C@H]1C5` [Morphine], the “Increase in the acute ED50 values after repeated treatment” value (adult male Wistar rats [1]; i.t., tail-flick test) was 3.2 fold, the “ED50 value (nmol, i.t.), Day 1” value (adult male Wistar rats [1]; rat tail-flick, 30 min post-injection, Day 1, mean (CI 95%)) was 2.82 (2.33–3.41) nmol and the “ED50 value (nmol, i.t.), Day 3” value (adult male Wistar rats [1]; rat tail-flick, repeated daily treatment, Day 3, mean (CI 95%)) was 9.03 (7.03–11.61) nmol. For the same compound, the “Latency to fall, Rotarod” value (adult male Wistar rats [2]) was 222.33 ± 8.44 s, the “Additional behaviours (wet-dog shakes, teeth chattering)” value (adult male Wistar rats [3]) was “wet-dog shakes and teeth chattering” and the Scratching response (adult male Wistar rats [3]; day 9, first 30 min post-injection) was “strong scratch reflex in rats that weakened over time”. The “MPE (%), tail-flick test” value (adult male Wistar rats [4]; 15 min post-administration) was 84.50 ± 3.84% and the “MPE (%), tail-flick test” value (adult male Wistar rats [4]; 30 min post-injection) was 86.23 ± 4.76%.
